Test results published in ChEMBL document CHEMBL4706648, “Antitubercular 2-Pyrazolylpyrimidinones: Structure-Activity Relationship and Mode-of-Action Studies” (J Med Chem, 2021).
Values after ≈ are worked out from the molar mass of the structure shown. Active and inactive are the calls of the source. No cut-off for these calls is given here.

Columns and labels:
[1] = Aqueous solubility of compound at pH 7.4; format: physicochemical
[2] = tested on: Mycobacterium tuberculosis; format: functional; conditions: H37Rv, 168 h, time 7 day
[3] = tested on: CHO; test: Cytotoxicity against CHO cells assessed as reduction in cell viability by MTT assay; format: cell-based; conditions: Cricetulus griseus
[4] = Metabolic stability in rat liver microsomes assessed as parent compound remaining after 30 mins; format: ADME, Microsome; conditions: 0.5 h
[5] = Metabolic stability in mouse liver microsomes assessed as parent compound remaining after 30 mins; format: ADME, Microsome; conditions: 0.5 h
[6] = Metabolic stability in human liver microsomes assessed as parent compound remaining after 30 mins; format: ADME, Microsome; conditions: 0.5 h
[7] = Kinetic solubility of compound at 200 uM at pH 7.4 measured after 20 hrs by HPLC-DAD analysis; format: physicochemical; conditions: buffer, pH 7.4, 20 h
[8] = Protein binding in human plasma assessed as unbound fraction at 5 uM incubated for 1 hr at 37 degreeC and measured after 4 hrs by ultracentrifugation based LC-MS/MS analysis; format: ADME, cell-free; conditions: 5 h
[9] = tested on: Vero; test: Cytotoxicity against African green monkey Vero cells assessed as reduction in cell viability by MTT assay; format: cell-based; conditions: Chlorocebus sabaeus
[10] = tested on: Mycobacterium tuberculosis; format: functional; conditions: H37Rv, 168 h, time 7 day; remark: listed apart in the source
[11] = tested on: Mycobacterium tuberculosis; test: Antimycobacterial activity against mmpL3 gene silenced Mycobacterium tuberculosis H37Rv assessed as inhibition of bacterial growth grown under middlebrook 7H9 medium incubated for 7 days by alamar blue broth microdilution method; format: functional, organism-based; conditions: time 7.0 day
[12] = Metabolic stability in mouse liver microsomes assessed as parent compound remaining at 1 uM in presence of NADPH by LC-MS/MS analysis; format: ADME, Microsome
[13] = tested on: Mycobacterium tuberculosis; test: Antimycobacterial activity against wild-type Mycobacterium tuberculosis H37Rv assessed as inhibition of bacterial growth grown under middlebrook 7H9 medium incubated for 7 days by alamar blue broth microdilution method; format: functional; conditions: 168 h, time 7 day
[14] = tested on: Mycobacterium tuberculosis; format: functional; conditions: H37Rv, 168 h, time 7 day; remark: listed apart in the source
[15] = Metabolic stability in rat liver microsomes assessed as parent compound remaining at 1 uM in presence of NADPH by LC-MS/MS analysis; format: ADME, Microsome
[16] = tested on: Mycobacterium tuberculosis; format: functional; conditions: H37Rv, 168 h, time 7 day; remark: listed apart in the source
[17] = tested on: Mycobacterium tuberculosis; format: functional; conditions: H37Rv, 168 h, time 7 day; remark: listed apart in the source
[18] = Lipophilicity, log D of the compound in n-octanol and phosphate buffer at pH 7.4 measured after 3 hrs by HPLC-DAD analysis; format: physicochemical
[19] = Metabolic stability in human liver microsomes assessed as parent compound remaining at 1 uM in presence of NADPH by LC-MS/MS analysis; format: ADME, Microsome

SMILES	solubility ([1]; aqueous, read-out: solubility)	MIC [2]	IC50 [3]	solubility ([1]; buffer)	other results
Cc1cc(-c2ccccc2)n(-c2nc(C(F)(F)F)cc(=O)[nH]2)n1	200 µM (≈ 64.1 µg/mL)	25 µM (≈ 8.01 µg/mL)	> 50 µM		
Cc1cc(C)n(-c2nc(C)c(-c3ccccc3)c(=O)[nH]2)n1		9 µM (≈ 2.52 µg/mL)	9 µM	190 µM (≈ 53.3 µg/mL)	
Cc1cc(Nc2ccc(N3CCOCC3)cn2)n(-c2nc(C(F)(F)F)cc(=O)[nH]2)n1		2.3 µM (≈ 0.969 µg/mL)	1.3 µM	180 µM (≈ 75.8 µg/mL)	
Cc1cc(C(=O)O)nn1-c1nc(-c2ccc(F)cc2)cc(=O)[nH]1		> 50 µM		155 µM (≈ 48.7 µg/mL)	
Cc1nn(-c2nc(C(F)(F)F)cc(=O)[nH]2)c(C)c1-c1cccnc1		> 50 µM		195 µM (≈ 65.4 µg/mL)	
Cc1cc(Nc2ccncc2)n(-c2nc(C(F)(F)F)cc(=O)[nH]2)n1		> 50 µM		20 µM (≈ 6.73 µg/mL)	
Cc1cc(=O)n(-c2nc(-c3ccccc3)cc(=O)[nH]2)[nH]1	190 µM (≈ 51 µg/mL)	> 125 µM			
Cc1cc(C)n(-c2nc(-c3ccc(F)cc3)cc(=O)[nH]2)n1		1.2 µM (≈ 0.341 µg/mL)	4 µM	35 µM (≈ 9.95 µg/mL)	
Cc1cc(C)n(-c2cc(-c3ccccc3)nc(=O)[nH]2)n1		2 µM (≈ 0.533 µg/mL)	10 µM	30 µM (≈ 7.99 µg/mL)	
Cc1cc(C)n(-c2nc(-c3ccc(F)cc3)c(C(N)=O)c(=O)[nH]2)n1		> 50 µM		110 µM (≈ 36 µg/mL)	
CCc1cc(C)nn1-c1nc(C(F)(F)F)cc(=O)[nH]1	200 µM (≈ 54.4 µg/mL)	12 µM (≈ 3.27 µg/mL)	108 µM		
Cc1cc(C)n(-c2nc(-c3ccccc3)c(C)c(=O)[nH]2)n1		2 µM (≈ 0.561 µg/mL)	25 µM	120 µM (≈ 33.6 µg/mL)	Stabilty [4]: 54%; Stabilty [5]: 45%; Stabilty [6]: 65%; Kinetic_solubility [7]: 120 µM
Cc1cc(N)n(-c2nc(C(F)(F)F)cc(=O)[nH]2)n1	200 µM (≈ 51.8 µg/mL)	20 µM (≈ 5.18 µg/mL)	120 µM		
Cc1cc(C)n(-c2nc(-c3ccc(NS(C)(=O)=O)cc3)cc(=O)[nH]2)n1		> 125 µM	> 50 µM	20 µM (≈ 7.19 µg/mL)	
Cc1cc(NC2CCOCC2)n(-c2nc(C(F)(F)F)cc(=O)[nH]2)n1		1.56 µM (≈ 0.536 µg/mL)	18 µM	50 µM (≈ 17.2 µg/mL)	Fu [8]: 0.014; Stabilty [4]: > 99%; Stabilty [5]: 93%; Stabilty [6]: > 99%; Kinetic_solubility [7]: 50 µM
Cc1cc(N)n(-c2nc(-c3ccccc3)cc(=O)[nH]2)n1				180 µM (≈ 48.1 µg/mL)	IC50 [9]: 9 µM
O=c1cc(-c2ccccc2)nc(-n2cccn2)[nH]1		50 µM (≈ 11.9 µg/mL)	> 50 µM	190 µM (≈ 45.3 µg/mL)	
Cc1cc(Nc2ccc(F)cc2F)n(-c2nc(C(F)(F)F)cc(=O)[nH]2)n1	< 5 µM	0.3 µM (≈ 0.111 µg/mL)	8 µM		
CNC(=O)c1ccc(-c2cc(=O)[nH]c(-n3nc(C)cc3C)n2)cc1		> 50 µM	> 50 µM	70 µM (≈ 22.6 µg/mL)	
Cc1cc(C(=O)N(C)C)nn1-c1nc(-c2ccc(F)cc2)cc(=O)[nH]1		> 50 µM		65 µM (≈ 22.2 µg/mL)	
Cc1cc(CN(C)C)nn1-c1nc(C(F)(F)F)cc(=O)[nH]1	200 µM (≈ 60.3 µg/mL)	> 50 µM			
Cc1ccc(Nc2cc(C)nn2-c2nc(C)cc(O)n2)cc1	< 5 µM	2 µM (≈ 0.591 µg/mL)			MIC [10]: 6 µM (≈ 1.77 µg/mL); Activity [11]: Active; Stabilty [12]: 78%; IC50 [9]: 1.2 µM; MIC [13]: 4.8 µM (≈ 1.42 µg/mL); MIC [14]: 0.02 µM (≈ 0.00591 µg/mL); Stabilty [15]: 76%; MIC [16]: 0.2 µM (≈ 0.0591 µg/mL); MIC [17]: 0.4 µM (≈ 0.118 µg/mL); logD at 3 h [18]: 2.2; Stabilty [19]: 73%
Cc1nc(C)n(-c2nc(-c3ccccc3)cc(=O)[nH]2)n1		> 125 µM	> 50 µM	130 µM (≈ 34.7 µg/mL)	
Cc1cc(C)n(-c2nc3ccccc3c(=O)[nH]2)n1		3 µM (≈ 0.721 µg/mL)	6 µM	150 µM (≈ 36 µg/mL)	
Cc1cc(C)n(-c2nc(-c3cccnc3)cc(=O)[nH]2)n1	200 µM (≈ 53.5 µg/mL)	50 µM (≈ 13.4 µg/mL)	> 50 µM		
